Measured values: the NIST ThermoML archive (doi:10.1016/j.tca.2005.03.009)

Assay: excess molar enthalpy (molar enthalpy of mixing); xn = mol fraction of the nth substance listed
Settings: 298.15 K, 10000 kPa, Liquid, Flow calorimetry

CCOC(C)=O [ethyl acetate] + CO
Settings	excess molar enthalpy [kcal/mol]
x1 = 0.057	0.0436
x1 = 0.086	0.0651
x1 = 0.113	0.0798
x1 = 0.188	0.125
x1 = 0.257	0.163
x1 = 0.319	0.193
x1 = 0.377	0.214
x1 = 0.43	0.231
x1 = 0.478	0.238
x1 = 0.524	0.242
x1 = 0.566	0.241
x1 = 0.605	0.236
x1 = 0.641	0.234
x1 = 0.675	0.226
x1 = 0.707	0.218
x1 = 0.738	0.208
x1 = 0.766	0.196
x1 = 0.793	0.183
x1 = 0.818	0.17
x1 = 0.842	0.156
x1 = 0.864	0.14
x1 = 0.886	0.124
x1 = 0.906	0.107
x1 = 0.926	0.0879
x1 = 0.944	0.068
x1 = 0.962	0.0478
x1 = 0.979	0.0253

CCOC(C)=O [ethyl acetate] + CCO
Settings	excess molar enthalpy [kcal/mol]
x1 = 0.03	0.0337
x1 = 0.054	0.0591
x1 = 0.078	0.0875
x1 = 0.104	0.112
x1 = 0.13	0.135
x1 = 0.157	0.158
x1 = 0.184	0.18
x1 = 0.213	0.202
x1 = 0.243	0.223
x1 = 0.274	0.241
x1 = 0.306	0.259
x1 = 0.339	0.274
x1 = 0.373	0.288
x1 = 0.409	0.299
x1 = 0.446	0.31
x1 = 0.485	0.317
x1 = 0.525	0.32
x1 = 0.567	0.318
x1 = 0.611	0.313
x1 = 0.657	0.301
x1 = 0.705	0.285
x1 = 0.754	0.26
x1 = 0.807	0.226
x1 = 0.861	0.182
x1 = 0.919	0.122
x1 = 0.939	0.0955
x1 = 0.96	0.0656

CCC(C)=O [butanone] + CCOC(C)=O
Settings	excess molar enthalpy [kcal/mol]
x2 = 0.047	0.0711
x2 = 0.082	0.119
x2 = 0.118	0.165
x2 = 0.153	0.201
x2 = 0.189	0.24
x2 = 0.225	0.271
x2 = 0.262	0.301
x2 = 0.298	0.323
x2 = 0.335	0.346
x2 = 0.371	0.362
x2 = 0.408	0.378
x2 = 0.446	0.389
x2 = 0.483	0.4
x2 = 0.52	0.405
x2 = 0.558	0.403
x2 = 0.596	0.401
x2 = 0.634	0.387
x2 = 0.673	0.374
x2 = 0.711	0.354
x2 = 0.75	0.33
x2 = 0.789	0.296
x2 = 0.828	0.261
x2 = 0.867	0.216
x2 = 0.907	0.163
x2 = 0.947	0.103
x2 = 0.96	0.0773
x2 = 0.974	0.0518

CCOC(C)=O [ethyl acetate] + CCCO
Settings	excess molar enthalpy [kcal/mol]
x1 = 0.039	0.0599
x1 = 0.068	0.0949
x1 = 0.098	0.129
x1 = 0.129	0.161
x1 = 0.16	0.19
x1 = 0.192	0.22
x1 = 0.225	0.243
x1 = 0.258	0.268
x1 = 0.291	0.288
x1 = 0.326	0.306
x1 = 0.361	0.326
x1 = 0.396	0.338
x1 = 0.433	0.349
x1 = 0.47	0.355
x1 = 0.508	0.361
x1 = 0.547	0.362
x1 = 0.586	0.359
x1 = 0.627	0.35
x1 = 0.668	0.339
x1 = 0.71	0.321
x1 = 0.753	0.296
x1 = 0.797	0.265
x1 = 0.842	0.223
x1 = 0.888	0.173
x1 = 0.935	0.109
x1 = 0.951	0.0839
x1 = 0.968	0.0573

CCOC(C)=O [ethyl acetate] + CC(C)O
Settings	excess molar enthalpy [kcal/mol]
x1 = 0.039	0.065
x1 = 0.07	0.114
x1 = 0.1	0.155
x1 = 0.132	0.192
x1 = 0.163	0.228
x1 = 0.196	0.259
x1 = 0.229	0.289
x1 = 0.262	0.313
x1 = 0.296	0.336
x1 = 0.331	0.356
x1 = 0.366	0.372
x1 = 0.402	0.387
x1 = 0.439	0.395
x1 = 0.476	0.404
x1 = 0.514	0.409
x1 = 0.553	0.406
x1 = 0.592	0.402
x1 = 0.632	0.39
x1 = 0.673	0.374
x1 = 0.715	0.351
x1 = 0.758	0.321
x1 = 0.801	0.283
x1 = 0.845	0.239
x1 = 0.891	0.182
x1 = 0.937	0.115
x1 = 0.952	0.0903
x1 = 0.969	0.0607
